Data: patent US20240409536A1, “COMPOUNDS AND METHODS FOR MODULATING SPLICING” (REMIX THERAPEUTICS INC., priority 2021, published 2024)

Assays:
[1] = tested on: MYB mRNA; test: Splicing RT-qPCR assay, MYB canonical (CJ) and alternative (AJ) junction mRNA; assay type: cell-based; conditions: Homo sapiens, A673 or K562 cells, 24 hours; for IC50: decrease in canonical junction mRNA; for AC50: increase in alternative junction mRNA
In short: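 Housekeeping-normalized RT-qPCR of canonical and alternative junctions in lysates of A673 or K562 cells exposed 24 h to compound (11 points, 3-fold steps, max 10 uM).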

[2] = tested on: Target C mRNA; test: Gene panel canonical junction qPCR assay, Target C CJ mRNA decrease; assay type: cell-based; conditions: Homo sapiens, canonical junction qPCR, read-out: Target C IC50 (decrease in CJ mRNA levels)
In short: (§1)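 A673 or K562 cells were treated with compound, and lysates underwent cDNA synthesis and qPCR with a CY5 5′-nuclease probe or primer spanning the canonical exon junction. ΔCt versus GAPDH, GUSB or PPIA was normalized to DMSO (2^(−ΔΔCt)), converted to percentage response and fitted four-parameter logistic for IC50.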

[3] = tested on: MYB mRNA; test: Gene panel canonical junction qPCR assay, MYB CJ mRNA decrease; assay type: cell-based, human; conditions: Homo sapiens, canonical junction qPCR, read-out: MYB IC50 (decrease in CJ mRNA levels)
In short: as §1

[4] = tested on: SMN2 mRNA; test: Gene panel canonical junction qPCR assay, SMN2 CJ mRNA decrease; assay type: cell-based, human; conditions: Homo sapiens, canonical junction qPCR, read-out: SMN2 IC50 (decrease in CJ mRNA levels)
In short: as §1

IC50 [1] | IC50 [2] | IC50 [3] | IC50 [4] | SMILES | AC50 [1]
< 100 nM | 100 to 1000 nM | < 100 nM | < 100 nM | CCNC1CCN(c2ccc(C(=O)Nc3cc(F)c4nc(C)cn4c3)c3nc(C)ccc23)CC1 [Compound 228, 5-[4-(ethylamino)piperidin-1-yl]-N-{8-fluoro-2-methylimidazo[1,2-a]pyridin-6-yl}-2-methylquinoline-8-carboxamide] | 100 to 1000 nM
1000 to 10000 nM |  | 1000 to 10000 nM | 100 to 1000 nM | Cc1cn2cc(NC(=O)c3ccc(N4CCC(NC(C)(C)C)C4)c4ccnnc34)cc(F)c2n1 (centres unmarked) [Compound 109] | 1000 to 10000 nM
100 to 1000 nM | 1000 to 10000 nM | 100 to 1000 nM | < 100 nM | CCNC1CCN(c2ccc(C(=O)Nc3cc(F)c4nc(C)cn4c3)c3nc(OCCOC)ccc23)CC1 [Compound 233, 5-[4-(ethylamino)piperidin-1-yl]-N-{8-fluoro-2-methylimidazo[1,2-a]pyridin-6-yl}-2-(2-methoxyethoxy)quinoline-8-carboxamide] | 100 to 1000 nM
> 10000 nM | > 10000 nM | > 10000 nM | > 10000 nM | Cc1cn2cc(NCc3ccc(N4CCNCC4)c4ccnnc34)cc(F)c2n1 [Compound 230, 8-fluoro-2-methyl-N-{[5-(piperazin-1-yl)cinnolin-8-yl]methyl}imidazo[1,2-a]pyridin-6-amine] | > 10000 nM
100 to 1000 nM | > 10000 nM | 100 to 1000 nM | < 100 nM | COCCOc1ccc2c(N3CCC(N(C)C)CC3)ccc(C(=O)Nc3cc(F)c4nc(C)cn4c3)c2n1 [Compound 229, 5-[4-(dimethylamino)piperidin-1-yl]-N-{8-fluoro-2-methylimidazo[1,2-a]pyridin-6-yl}-2-(2-methoxyethoxy)quinoline-8-carboxamide] | < 100 nM
100 to 1000 nM | 1000 to 10000 nM | 100 to 1000 nM | < 100 nM | COCCOc1ccc2c(N3C[C@@H](C)N[C@@H](C)C3)ccc(C(=O)Nc3cc(F)c4nc(C)cn4c3)c2n1 [Compound 232, 5-[(3R,5S)-3,5-dimethylpiperazin-1-yl]-N-{8-fluoro-2-methylimidazo[1,2-a]pyridin-6-yl}-2-(2-methoxyethoxy)quinoline-8-carboxamide] | 100 to 1000 nM
1000 to 10000 nM | > 10000 nM | 1000 to 10000 nM | < 100 nM | CNC1CCN(c2ccc(C(=O)Nc3cc(F)c4nc(C)cn4c3)c3ncc(OC)nc23)C1 (stereo in doubt) [Compound 227, (R)—N-(8-fluoro-2-methylimidazo[1,2-a]pyridin-6-yl)-2-methoxy-8-(3-(methylamino)pyrrolidin-1-yl)quinoxaline-5-carboxamide 2,2,2-trifluoroacetate] | 1000 to 10000 nM
< 100 nM | > 10000 nM | < 100 nM | < 100 nM | CNC1CCN(c2ccc(C(=O)Nc3cc(F)c4nc(C)cn4c3)c3nnccc23)C1 (centres unmarked) [Compound 231, N-{8-fluoro-2-methylimidazo[1,2-a]pyridin-6-yl}-5-[3-(methylamino)pyrrolidin-1-yl] cinnoline-8-carboxamide] | < 100 nM
< 100 nM | 100 to 1000 nM | < 100 nM | < 100 nM | Cc1cnc2c(C(=O)Nc3cc(F)c4nc(C)cn4c3)ccc(N3C[C@@H](C)N[C@@H](C)C3)c2n1 [Compound 217, 8-((3R,5S)-3,5-dimethylpiperazin-1-yl)-N-{8-fluoro-2-methylimidazo[1,2-a]pyridin-6-yl}-2-methylquinoxaline-5-carboxamide] | < 100 nM
